What was measured:
[1] = biological target: T1, MycC protein (Homo sapiens, UniProt P01106); assay: Degradation of MycC protein, Western blot, L-363 cells (Example 160); assay type: cell-based; settings: 6 h
T1 construct: either 2×10^6 of L-363 (human leukemia cell line) or SKNBE2 (neuroblastoma cell line) cells; endogenous in cells; host or cells: L-363 / L363 human leukemia cells
Procedure: In a T150 flask was plated either 2×10^6 of L-363 (human leukemia cell line) or SKNBE2 (neuroblastoma cell line) cells in a total of 30 mL containing Roswell Park Memorial Institute (RPMI) 1640 Medium (Thermo Fisher, Cat. #11875-085), 10% Fetal Bovine Serum (FBS, Thermo Fisher: Cat. #10437-028), 1% Penicillin/streptomycin (Thermo Fisher: Cat. #10378016), and 1% Amophotericin B (Thermo Fisher, Cat. #15290026). The cells were split every 72 hours by reseeding the L-363 or SKNBE2 cells, and the passage number was noted. It is noteworthy that cell cultures that were above 40 passages were not used, and most experiments were done with cells of less than 30 passages.
In a 6-well cell culture plate, a total of 3 mL of either 1×10^6 cells/mL of L-363 or SKNBE2 cells were seeded, resulting in a total of 3×10^6 cells per well. To each well containing 3 mL of either L-363 or SKNBE2 cell line was added 6 uL of MycN modulating compound (1 mM) and the resulting plate was shaken from left to right, and not swirled. After 6 hours, the cells were placed in a 15 mL falcon tube and spun at 500 Gs at 4° C. in a swinging bucket centrifuge. The medium was then carefully removed without disturbing the pellet. The pellet was then washed with 3 mLs of chilled phosphate buffered saline (PBS) and subjected to the spin cycle. PBS was then removed and the pellet was lysed in 200 uL of radioimmunoprecipitation (RIPA) lysis buffer (Thermo Fisher: Cat. #899000) that is supplemented with protease and phosphatase inhibitors (Thermo Fisher: Cat. #A32959). The cell lysate was then subjected to spinning in a centrifuge for 10 minutes at 13000 G at 4° C. The supernatant was then carefully transferred to a fresh eppendorf tube without disturbing the pellet (˜180 uL). The protein concentration of the cell lysate was then determined by using a bicinchoninic acid (BCA assay) according to manufacturer's protocol (Thermo Fisher: Cat. #23227).
Cell lysate, approximately 25 ug-30 ug, was loaded per well in a 4-20% polyacrylamide gel (Biorad. Cat. #5671094). After running the dye front off of the gel, the gel was transferred to a nitrocellulose membrane (Biorad: Cat. #1704159) using the transblot turbo system (Biorad: Cat. #1704150) according to manufacturer's protocol. After transferring for 30 minutes, the membrane was blocked with 5% BSA for 1 hour at room temperature. The BSA was then washed off and the primary antibody of choice (1:500) was added, and the membrane was incubated with the primary antibody at 4° C. for overnight. The next morning, the primary antibody was removed and the membrane was washed with 1×-TBST for 10 minutes and repeated three more times. Following the last wash, a secondary antibody (Molecular Devices. Cat. #R8209 or R8208) was added at 1:5000 dilution and incubated for 1 hour at room temperature. Following the incubation with the secondary antibody, the membrane was washed with 1×-TBST for 10 minutes and repeated three more times. Following the last wash, the membrane was washed with de-ionized water twice and dried for at least two hours. Once the membrane is completely dry, the Molecular Devices Spectra Max western system was used to observe the bands. The western image was saved and the band density was measured with ImageJ software.

[2] = biological target: T2, MycN protein (Homo sapiens, UniProt P04198); assay: Degradation of MycN protein, Western blot, SKNBE2 cells (Example 160); assay type: cell-based
T2 construct: either 2×10^6 of L-363 (human leukemia cell line) or SKNBE2 (neuroblastoma cell line) cells; endogenous in cells; host or cells: SKNBE2 / SK-N-BE(2) neuroblastoma cells
T2 sequence (P04198 1-464): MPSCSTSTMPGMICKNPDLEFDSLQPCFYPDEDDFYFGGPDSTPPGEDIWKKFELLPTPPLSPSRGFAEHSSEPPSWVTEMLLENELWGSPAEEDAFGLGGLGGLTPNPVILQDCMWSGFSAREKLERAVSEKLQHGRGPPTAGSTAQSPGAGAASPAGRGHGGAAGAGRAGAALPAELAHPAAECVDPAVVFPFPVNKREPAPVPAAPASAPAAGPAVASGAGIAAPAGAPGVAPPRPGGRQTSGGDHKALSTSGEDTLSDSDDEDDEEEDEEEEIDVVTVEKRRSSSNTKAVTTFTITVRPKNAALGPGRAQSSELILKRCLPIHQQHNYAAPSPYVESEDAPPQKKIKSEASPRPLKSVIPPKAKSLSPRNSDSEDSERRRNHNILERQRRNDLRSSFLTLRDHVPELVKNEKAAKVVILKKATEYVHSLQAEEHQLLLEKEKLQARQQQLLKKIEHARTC
Procedure, shortened: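 L-363 or SKNBE2 cells (passage <40, mostly <30) at 1×10^6 cells/mL in RPMI 1640/10% FBS were exposed 6 h to compound added from a 1 mM stock. RIPA lysates (25–30 ug protein) were analysed by SDS-PAGE and immunoblot with 1:500 primary antibody, with protein level quantified by band densitometry.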

T1 sequence (P01106 whole entry): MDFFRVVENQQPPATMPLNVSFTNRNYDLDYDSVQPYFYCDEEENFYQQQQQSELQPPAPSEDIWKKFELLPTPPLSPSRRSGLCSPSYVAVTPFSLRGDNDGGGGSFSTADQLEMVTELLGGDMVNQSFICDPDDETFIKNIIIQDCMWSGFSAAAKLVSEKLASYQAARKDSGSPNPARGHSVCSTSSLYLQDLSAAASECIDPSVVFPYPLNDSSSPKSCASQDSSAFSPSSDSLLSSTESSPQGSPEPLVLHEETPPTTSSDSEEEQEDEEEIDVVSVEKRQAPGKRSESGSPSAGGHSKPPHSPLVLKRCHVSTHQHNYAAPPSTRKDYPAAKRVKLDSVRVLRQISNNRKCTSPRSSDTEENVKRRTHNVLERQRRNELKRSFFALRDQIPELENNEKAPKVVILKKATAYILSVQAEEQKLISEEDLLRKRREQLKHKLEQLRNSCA

| inhibition at 2 µM [1] [%] | inhibition at 2 µM ([2]; SKNBE2, 6 h) [%] | SMILES | inhibition at 2 µM ([2]; 6 h) [%] |
| --- | --- | --- | --- |
| 80 to 100 | 50 to 79 | CN(c1nccc(Nc2cc(C3CC3)[nH]n2)n1)[C@H]1CC[C@H](NC(=O)Cc2ccnc(C#N)c2)CC1 [Compound 124, 2-(2-cyanopyridin-4-yl)-N-((1R,4R)-4-((4-((5-cyclopropyl-1H-pyrazol-3-yl)amino)pyrimidin-2-yl)(methyl)amino)cyclohexyl)acetamide] | – |
| 80 to 100 | 80 to 100 | CN(c1nccc(Nc2cc(C3CC3)[nH]n2)n1)[C@H]1CC[C@H](NC(=O)Cc2cccc(C#N)n2)CC1 [Compound 125, 2-(6-cyanopyridin-2-yl)-N-((1R,4R)-4-((4-((5-cyclopropyl-1H-pyrazol-3-yl)amino)pyrimidin-2-yl)(methyl)amino)cyclohexyl)acetamide] | – |
| 80 to 100 | < 20 | COc1ccc(C#N)cc1CC(=O)N[C@H]1CC[C@H](N(C)c2nccc(Nc3cc(C4CC4)[nH]n3)n2)CC1 [Compound 126, 2-(5-cyano-2-methoxyphenyl)-N-((1R,4R)-4-((4-((5-cyclopropyl-1H-pyrazol-3-yl)amino)pyrimidin-2-yl)(methyl)amino)cyclohexyl)acetamide] | – |
| 80 to 100 | 80 to 100 | CN(c1nccc(Nc2cc(C3CC3)[nH]n2)n1)[C@H]1CC[C@H](C(=O)NCc2cccc(C(F)(F)F)c2)CC1 [Compound 127, (1R,4R)-4-((4-((5-cyclopropyl-1H-pyrazol-3-yl)amino)pyrimidin-2-yl)(methyl)amino)-N-(3-(trifluoromethyl)benzyl)cyclohexane-1-carboxamide] | – |
| 50 to 79 | < 20 | CN(c1nccc(Nc2cn(C3CCCC3)cn2)n1)[C@H]1CC[C@H](NC(=O)C2Cc3ccccc3C2)CC1 [Compound 130, N-((1R,4R)-4-((4-((1-cyclopentyl-1H-imidazol-4-yl)amino)pyrimidin-2-yl)(methyl)amino)cyclohexyl)-2,3-dihydro-1H-indene-2-carboxamide] | – |
| < 20 | 20 to 49 | CN(c1nccc(Oc2cc(C3CCCC3)[nH]n2)n1)C1CCC(NC(=O)Cc2cccc(C(F)(F)F)c2)CC1 [Compound 131, N-((1R,4R)-4-((4-((5-cyclopentyl-1H-pyrazol-3-yl)oxy)pyrimidin-2-yl)(methyl)amino)cyclohexyl)-2-(3-(trifluoromethyl)phenyl)acetamide] | – |
| 80 to 100 | 80 to 100 | CN(c1nccc(Nc2cc(C3CC3)[nH]n2)n1)[C@H]1CC[C@H](NC(=O)c2cccc(S(C)(=O)=O)c2)CC1 [Compound 132, N-((1R,4R)-4-((4-((5-cyclopropyl-1H-pyrazol-3-yl)amino)pyrimidin-2-yl)(methyl)amino)cyclohexyl)-3-(methylsulfonyl)benzamide] | – |
| 80 to 100 | 80 to 100 | CN(c1nccc(Nc2cc(C3CC3)[nH]n2)n1)C1CCC(CC(=O)Nc2cn(C3COC3)cn2)CC1 [Compound 133, 2-((1R,4R)-4-((4-((5-cyclopropyl-1H-pyrazol-3-yl)amino)pyrimidin-2-yl)(methyl)amino)cyclohexyl)-N-(1-(oxetan-3-yl)-1H-imidazol-4-yl)acetamide] | – |
| 80 to 100 | < 20 | CN(c1nccc(Nc2cc(C3CC3)[nH]n2)n1)[C@H]1CC[C@H](NC(=O)c2ccc(S(C)(=O)=O)cn2)CC1 [Compound 135, N-((1R,4R)-4-((4-((5-cyclopropyl-1H-pyrazol-3-yl)amino)pyrimidin-2-yl)(methyl)amino)cyclohexyl)-5-(methylsulfonyl)picolinamide] | – |
| 20 to 49 | < 20 | CN(c1nccc(Nc2cc(C3CC3)[nH]n2)n1)[C@H]1CC[C@H](NC(=O)c2ccc(C#N)cn2)CC1 [Compound 137, 5-cyano-N-((1R,4R)-4-((4-((5-cyclopropyl-1H-pyrazol-3-yl)amino)pyrimidin-2-yl)(methyl)amino)cyclohexyl)picolinamide] | – |
| 80 to 100 | 80 to 100 | Cn1nnc2cc(C(=O)N[C@H]3CC[C@H](N(C)c4nccc(Nc5cc(C6CC6)[nH]n5)n4)CC3)ccc21 [Compound 139, N-((1R,4R)-4-((4-((5-cyclopropyl-1H-pyrazol-3-yl)amino)pyrimidin-2-yl)(methyl)amino)cyclohexyl)-1-methyl-1H-benzo[d][1,2,3]triazole-5-carboxamide] | – |
| 80 to 100 | 80 to 100 | Cn1cc(C(=O)N[C@H]2CC[C@H](N(C)c3nccc(Nc4cc(C5CC5)[nH]n4)n3)CC2)nn1 [Compound 140, N-((1R,4R)-4-((4-((5-cyclopropyl-1H-pyrazol-3-yl)amino)pyrimidin-2-yl)(methyl)amino)cyclohexyl)-1-methyl-1H-1,2,3-triazole-4-carboxamide] | – |
| 80 to 100 | 80 to 100 | CN(c1nccc(Nc2cc(C3CC3)[nH]n2)n1)[C@H]1CC[C@H](NC(=O)c2cn3cccnc3n2)CC1 [Compound 141, N-((1R,4R)-4-((4-((5-cyclopropyl-1H-pyrazol-3-yl)amino)pyrimidin-2-yl)(methyl)amino)cyclohexyl)imidazo[1,2-a]pyrimidine-2-carboxamide] | – |
| 80 to 100 | 80 to 100 | CN(c1nccc(Nc2cc(C3CC3)[nH]n2)n1)[C@H]1CC[C@H](NC(=O)c2nc3ccccn3n2)CC1 [Compound 142, N-((1R,4R)-4-((4-((5-cyclopropyl-1H-pyrazol-3-yl)amino)pyrimidin-2-yl)(methyl)amino)cyclohexyl)-[1,2,4]triazolo[1,5-a]pyridine-2-carboxamide] | – |

| SMILES | inhibition at 2 µM [1] [%] | inhibition at 2 µM ([2]; SKNBE2, 6 h) [%] | inhibition at 2 µM ([2]; 6 h) [%] |
| --- | --- | --- | --- |
| CN(c1nccc(Nc2cc(C3CC3)[nH]n2)n1)C1CCC(CC(=O)NC2Cc3cc(F)c(F)cc3C2)CC1 (stereo not shown) [Compound 134, 2-(4-((4-((5-cyclopropyl-1H-pyrazol-3-yl)amino)pyrimidin-2-yl)(methyl)amino)cyclohexyl)-N-(5,6-difluoro-2,3-dihydro-1H-inden-2-yl)acetamide] | 80 to 100 | – | 20 to 49 |
| CN(c1nccc(Nc2cc(C3CC3)[nH]n2)n1)[C@H]1CC[C@H](NC(=O)c2cccc(C#N)c2)CC1 [Compound 136, 3-cyano-N-((1R,4R)-4-((4-((5-cyclopropyl-1H-pyrazol-3-yl)amino)pyrimidin-2-yl)(methyl)amino)cyclohexyl)benzamide] | 80 to 100 | – | 50 to 79 |
| CN(c1cc(C2CCCC2)[nH]n1)c1ccnc(N(C)C2CCC(CC(=O)NC3Cc4ccc(C#N)cc4C3)CC2)n1 (stereo not shown) [Compound 138, N-(5-cyano-2,3-dihydro-1H-inden-2-yl)-2-(4-((4-((5-cyclopentyl-1H-pyrazol-3-yl)(methyl)amino)pyrimidin-2-yl)(methyl)amino)cyclohexyl)acetamide] | < 20 | – | < 20 |

Reference: patent US20230322722A1, “MODULATORS OF MYC FAMILY PROTO-ONCOGENE PROTEIN” (Nalo Therapeutics, priority 2020, published 2023)
